Laboratory results as given in patent US20260355142A1, “AMORPHOUS OTE[…] COMPOSITIONS AND USES THEREOF AND DOSAGE REGIMENS FOR OTENAPROXESUL” (ANTIBE THERAPEUTICS INC., priority 2022, published 2026).
One block for each compound: values may come before it.

What was measured:
[1] = H2S release / formulation stability in simulated gastric fluid; conditions: SGF, 1 mg/ml, 37° C., 5% CO2
Description: Assay design: 1 mg of exemplary ASD no. 1 and crystalline otenaproxesul were weighed in separate glass vials. SGF was added to prepare a 1 mg/ml solution which was incubated at 37° C. with 5% CO2. 120 μl was removed at 0, 0.5, 1, 2, 3, 4 and 8 hrs and quenched in DPD and FeCl3 solutions. A blank and 10 mM stock was also analyzed. The methylene blue was analyzed using HPLC.
As H2S is volatile in the acidic form the calibration curve was not plotted, however H2S release was compared to T0.

[2] = Rat pharmacokinetics of otenaproxesul amorphous dispersion (Example 19); type: in vivo, Rats; conditions: HED 260 mg once daily
Description: Rats were administered five treatment doses of the otenaproxesul amorphous solid dispersion (i.e., exemplary ASD no. 1 (35% drug: 65% polymer by weight)) and a crystalline otenaproxesul control dose. […] One group of rats was administered a human equivalent dose of 208 mg twice daily (416 mg total daily dose). Crystalline otenaproxesul was administered at the no observed adverse effect level (NOAEL) dose equivalent to a human dose of 260 mg once daily.
Pharmacokinetic data was evaluated on M25 plasma naproxen concentrations at 60 minutes post administration, Day 1 M25 plasma exposure (AUC0-24) and Day 4 M25 plasma exposure (AUC0-Last). Assessment of dose proportional characteristics for both M25 plasma concentration and AUC exposure were measured.
The human equivalent dose (HED) is related to the administered rat dose by an allometric scaling formula, for example: HED (mg)=([rat dose in mg/kg×0.16]×65 kg).

[3] = tested on: osteoarthritis of the knee; test: Phase 2b study, change in WOMAC subscale scores in osteoarthritis of the knee; type: in vivo, human; conditions: for WOMAC pain, stiffness and DPDA subscale scores: Baseline to Day 14
Description: This study evaluated the efficacy of a 14-day dosing regimen of crystalline otenaproxesul at doses of 150 mg, 200 mg and 250 mg compared to placebo in reducing osteoarthritis knee pain (a chronic pain condition) as measured by changes in the post-treatment Western Ontario and McMaster Universities Osteoarthritis Index (WOMAC) subscale pain score relative to each patient's pretreatment baseline WOMAC assessment. In patients with bilateral knee osteoarthritis, the most painful knee (index knee) or if in both knees of equal pain, then 1 index knee was noted and has been used for the WOMAC assessments throughout the study. The three doses were selected based on state-of-the-art knowledge of efficacy and safety for otenaproxesul at the time of the trial.
This study was a double-blind, placebo-controlled Phase 2B study that explored 3 different doses (150 mg, 200 mg, and 250 mg) of orally administered crystalline otenaproxesul in male and female patients diagnosed with osteoarthritis of the knee. Patients were randomly assigned in a 2:2:1:1 allocation ratio to otenaproxesul 250 mg, 200 mg, 150 mg, or placebo.
Study visits occurred on Day 1, Day 4, and Day 14 of the 14-day treatment phase and included WOMAC evaluations, blood samples for thromboxane B2 TXB2 and pharmacokinetic (PK) testing. The safety of otenaproxesul was evaluated through monitoring for adverse events (AEs), changes in physical examinations, vital signs measurements, and clinical laboratory evaluations.
The efficacy of treatment with otenaproxesul was assessed by measuring the change in the WOMAC VAS version 3.1 subscale pain, stiffness, and difficulties performing daily activities (DPDA) scores after 14 days relative to each patient's pretreatment baseline WOMAC score.
All patients who received 1 dose of study drug (otenaproxesul or placebo) and had at least 1 post-baseline WOMAC pain subscale score observation were included in the primary population for the analysis of efficacy (modified-intent-to-treat population [mITT]). Patients who met the criteria for the primary efficacy analyses and had no major protocol violations that could have impacted the assessment of efficacy (per protocol population [PP]) were evaluated as a supportive analysis. The primary and secondary endpoints were analyzed using a maximum likelihood mixed model repeated measure (MMRM). The model included treatment, visit, baseline WOMAC pain score, and treatment-by-visit interaction as fixed effects, and patient as a random effect. Dose-response analysis was conducted by using a contrast statement to the least squares (LS) means on Day 14 between the dose levels of otenaproxesul and placebo. For patients who received rescue medication within 12 hours before an efficacy assessment, the assessments at that visit were disregarded and considered missing. Analysis of the WOMAC pain subscale score, including the MMRM analysis and descriptive summary, were also presented by sex (male, female) in a subgroup analysis.

liver transaminases = test: 28-day PK/PD and AME clinical study in healthy older adults, liver transaminase elevations; type: in vivo, human; conditions: 100 mg cohort, full drug administration period
Description: The study was designed in part on the observation that across the otenaproxesul treatment groups, treatment-related >3×ULN (“upper limit of normal”) ALT and/or AST transaminase levels were noted (almost exclusively after the 14-day dosing interval) in 9.8% (6/61) of patients in the 150 mg arm, 7.2% (9/125) of patients in the 200 mg arm and 12.9% (17/132) patients in the 250 mg arm, with this issue being substantially biased towards females),
In this clinical trial, 28-day human safety/PK data was generated to complement the 14-day DRF data from Example 2. Biomarker data/dose (e.g., thromboxane B2) were also generated using standard ELISA assay kits.
Otenaproxesul was supplied as 75 mg, 100 mg and 125 mg, brown, film-coated tablets and was in crystalline form. Patients were instructed to take 1 tablet of otenaproxesul in the morning after an overnight fast. Food intake was restricted until at least 30 minutes after the morning dose.
The study enrolled a total of 42 subjects on either a 75 mg or 100 mg dose per day of otenaproxesul, of whom 35 had completed the 28-day drug administration period, with seven subjects having been administered the drug for 21 days before the study was paused. […]

Peak area of methylene blue (H2S release) ([1]; 0 hrs): 1.6 | Peak area of methylene blue (H2S release) ([1]; 0.5 hrs): 2.4 | Peak area of methylene blue (H2S release) ([1]; 1 hr): 2 | Peak area of methylene blue (H2S release) ([1]; 2 hrs): 2.3 | Peak area of methylene blue (H2S release) ([1]; 3 hrs): 1.8 | Peak area of methylene blue (H2S release) ([1]; 4 hrs): 1.9 | Peak area of methylene blue (H2S release) ([1]; 8 hrs): 2.4 | AUC increase between Day 1 and Day 4 ([2]; female rats): 60% | AUC increase between Day 1 and Day 4 ([2]; male rats): 30%
Structure (SMILES): COc1ccc2cc([C@H](C)C(=O)Oc3ccc(C(N)=S)cc3)ccc2c1 [crystalline otenaproxesul]
WOMAC pain, stiffness and DPDA subscale scores [3]: clinically and statistically significant improvement

subjects with liver transaminase elevations exceeding five times the upper limit of normal (liver transaminases): Three
Structure (SMILES): COc1ccc2cc([C@H](C)C(=O)Oc3ccc(C(N)=S)cc3)ccc2c1 [otenaproxesul, (S)-4-carbamothioylphenyl 2-(6-methoxynaphthalen-2-yl) propanoate]
reduction in pain, stiffness and DPDA ([3]; 150 mg daily): positive reduction in pain, stiffness and DPDA | actual mean change in WOMAC stiffness score, Baseline to Day 14 ([3]; 150 mg once daily, 95% CI −60.3, −36.6): −48.4 mm | decrease in WOMAC DPDA score vs placebo ([3]; 150 mg, Day 14): not statistically significant | decrease in WOMAC pain score vs placebo ([3]; 150 mg, Day 14): not statistically significant | LS mean change in WOMAC stiffness score, Baseline to Day 14 ([3]; 200 mg once daily, 95% CI −62.6, −46.3): −54.4 mm | LS mean change in WOMAC pain score, Baseline to Day 14 ([3]; 200 mg once daily, 95% CI −159.3, −120.6): −139.9 mm | LS mean change in WOMAC DPDA score, Baseline to Day 14 ([3]; 200 mg once daily, 95% CI −502.9, 374.1 (so in the source)): −438.5 mm | LS mean change in WOMAC stiffness score, Baseline to Day 14 ([3]; 250 mg once daily, 95% CI −63.5, −47.8): −55.6 mm | LS mean change in WOMAC pain score, Baseline to Day 14 ([3]; 250 mg once daily, 95% CI −154.0, −116.6): -135 mm | LS mean change in WOMAC DPDA score, Baseline to Day 14 ([3]; 250 mg once daily, 95% CI −475.1, −350.7): −412.9 mm | patients having at least a 30% reduction in WOMAC pain scores ([3]; 250 mg, Day 14): 63.4% | patients having at least a 50% reduction in WOMAC pain scores ([3]; 250 mg, Day 14): 43.5% | WOMAC pain, stiffness and DPDA subscale scores [3]: clinically and statistically significant improvement | decreases in WOMAC stiffness and DPDA scores ([3]; men, 200 mg, Day 14): reached statistical significance | decreases in WOMAC pain, stiffness and DPDA scores vs placebo ([3]; women, 250 mg and 200 mg, Day 14): reached statistical significance
